The term IC50 denotes the midpoint of a concentration-inhibition curve. Lower therefore signals greater potency.

SMILES strings stand for the structures.

This assay addresses T1, liver carnitine palmitoyl transferase 1 (L-CPT1) (Homo sapiens, UniProt P50416).
T1 construct: made in house; host or cells: Pichia pastoris strain X-33 (crude cell-free extract)
T1 sequence (P50416 1-773): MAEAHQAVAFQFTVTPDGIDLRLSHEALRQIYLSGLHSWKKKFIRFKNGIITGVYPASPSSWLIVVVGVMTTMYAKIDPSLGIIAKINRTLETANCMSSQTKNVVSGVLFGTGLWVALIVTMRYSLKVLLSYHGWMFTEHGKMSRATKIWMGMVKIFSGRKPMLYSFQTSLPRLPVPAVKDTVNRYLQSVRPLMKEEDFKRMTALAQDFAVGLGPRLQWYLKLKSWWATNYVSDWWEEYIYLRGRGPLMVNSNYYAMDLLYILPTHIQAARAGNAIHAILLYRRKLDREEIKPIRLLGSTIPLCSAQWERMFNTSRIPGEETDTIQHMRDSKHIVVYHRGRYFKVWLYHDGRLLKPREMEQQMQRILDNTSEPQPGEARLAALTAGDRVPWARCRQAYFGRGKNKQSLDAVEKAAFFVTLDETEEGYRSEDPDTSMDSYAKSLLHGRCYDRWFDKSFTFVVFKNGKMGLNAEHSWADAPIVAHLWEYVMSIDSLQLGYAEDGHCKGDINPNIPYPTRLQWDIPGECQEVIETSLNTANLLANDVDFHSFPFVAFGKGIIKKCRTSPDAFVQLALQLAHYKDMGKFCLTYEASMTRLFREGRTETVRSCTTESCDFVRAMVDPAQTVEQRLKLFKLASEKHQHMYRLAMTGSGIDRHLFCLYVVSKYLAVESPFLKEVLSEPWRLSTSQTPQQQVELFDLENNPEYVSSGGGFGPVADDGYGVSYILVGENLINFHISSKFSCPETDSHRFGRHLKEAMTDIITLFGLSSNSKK
The assay is described as follows: L-CPT1 inhibition, spectrophotometric DTNB (Ellman's reagent) CPT activity assay. It counts as biochemical. The protocol: The following tests were carried out in order to determine the activity of the compounds of the present invention. Background information on the performed assays can be found in: Jackson et al., 1999, Biochem. J. 341, 483-489 and Jackson et al., 2000, J. Biol. Chem. 275, 19560-19566.
Human liver and muscle CPT1 cDNAs and rat CPT2 cDNA were subcloned in pGAPZB or pGAPZA, respectively. These plasmids were used to transform P. pastoris strain X-33 via electroporation after the preparation of electrocompetent cells. High copy number clones were selected where necessary using 0.5 or 1 mg/ml Zeocin. Cultures for activity measurements were induced for 16 h in YPD medium (1% yeast extract, 2% peptone, 2% glucose). Crude cell extracts were prepared by disrupting the cells with glass beads or French Press, depending on fermenter sizes. After centrifugation, the cell-free extracts were resuspended in cell breaking buffer (50 mM Tris, pH7.4, 100 mM KCl, 1 mM EDTA) in the presence of a protease inhibitor cocktail, before aliquoting and freezing at −20° C.
CPT activity was measured using a spectrophotometric assay using 5,5′-dithio-bis-(2-nitrobenzoic acid) (DTNB) also called Ellman's reagent. The HS-CoA released on the formation of acylcarnitine from carnitine (500 μM) and palmitoyl-CoA (80 μM) reduced DTNB (300 μM) forming 5-mercapto-(2-nitrobenzoic acid) which absorbed at 410 nm with a molar coefficient extinction of 13600 M^−1.cm^−1. The assay buffer contained 120 mM KCl, 25 mM Tris, pH 7.4, 1 mM EDTA. This assay was used for the identification of selective inhibitors of the liver CPT1 isoform versus the muscle CPT1 and CPT2 isoforms.
Background: DTNB colorimetry detects thiols as they appear.
`COc1ccc(-c2noc([C@H]3CCCCN3C(=O)COc3ccccc3)n2)cc1` [Example 1, (R)-1-{2-[3-(4-Methoxy-phenyl)-[1,2,4]oxadiazol-5-yl]-piperidin-1-yl}-2-phenoxy-ethanone] displayed a half-maximal inhibitory concentration (IC50) of 66 nM.

`O=C(COc1ccccc1)N1CCCC[C@@H]1c1nc(-c2ccc(F)cc2)no1` [Example 10, (R)-1-{2-[3-(4-Fluoro-phenyl)-[1,2,4]oxadiazol-5-yl]-piperidin-1-yl}-2-phenoxy-ethanone] yielded an IC50 of 260 nM.

In turn, `COc1ccc(-c2n[nH]c([C@H]3CN(C)CCN3C(=O)COc3ccccc3)n2)cc1` [Example 172, (R)-1-{2-[5-(4-Methoxy-phenyl)-2H-[1,2,4]triazol-3-yl]-4-methyl-piperazin-1-yl}-2-phenoxy-ethanone] came in with an IC50 of 242 nM.

These data come from patent publication US7645776B2, “Heteroaryl substituted piperidine derivatives which are L-CPT1 inhibitors” (Hoffmann-La Roche Inc., priority 2005, dated 2010).
